Assay [1] relates to Spodoptera frugiperda Sf9 cells. Kind of assay: Entomotoxicity (LC50) on cultured Sf9 cells, Celltiter-Blue viability test. The format is cell-based. To be noted: for toxicity / entomotoxic properties (in words): Sf9 cells, compared with reference PA1b. The procedure: The entomototoxic properties were determined by evaluation of the LC50 (50% lethal concentration) on cultures of Spodoptera frugiperda Sf9 cells, as described by Rahioui et al. (Biochimie, 89, 1539-43, 2007). The cells were cultured at 27° C. in medium from Lonza supplemented with 5% fetal calf serum (FCS) and 0.1% gentamicin, then seeded into 96-well plates, 24 h before the experiments (15,000 cells/wells) and exposed to increasing concentrations of synthetic peptide. After 24 h, the cell viability was determined using the Celltiter-Blue viability test (Promega), in accordance with the manufacturer's instructions. After the addition of the dye, the cells were incubated at 27° C. for 4 h. The absorbance was then measured at 570 and 600 nm using a microplate reader (MR 7000, Dynatech Laboratories Inc., USA).
For orientation: Alamar Blue is a resazurin reagent that responds to reducing activity.

The target of assay [2] is PA1b-binding site. Nature of the assay: Affinity for the PA1b-binding site, ligand binding assay with 125I-labeled toxin. To be noted: ligand binding with toxin labeled with iodine 125I; dash = no binding in the range of concentrations tested. The procedure: The affinity for the PA1b-binding site was determined by means of ligand binding assays using a toxin labeled with iodine ^125I, as previously described (Gressent et al., Eur J Biochem, 270, 2429-35, 2003).

Bridge positions count the residues as written; N and C are the ends. Ends that are not written are not given here. Peptide text beside a SMILES is read from it.

In the case of `CC[C@H](C)[C@@H]1NC(=O)CNC(=O)[C@H](CO)NC(=O)[C@@H](NC(=O)[C@H](CC(=O)O)NC(=O)[C@H](C)N)CSSC[C@@H]2NC(=O)[C@H](CC(=O)O)NC(=O)[C@H](CO)NC(=O)[C@H](CO)NC(=O)[C@H](CCCNC(=N)N)NC(=O)[C@@H]3CSSC[C@@H](C(=O)N[C@H](C(=O)N[C@@H](CC(N)=O)C(=O)N4CCC[C@H]4C(=O)N[C@H](C(=O)N[C@@H](CO)C(=O)O)[C@@H](C)CC)[C@@H](C)CC)NC(=O)[C@H](Cc4ccccc4)NC(=O)CNC(=O)CNC(=O)[C@H]([C@@H](C)CC)NC(=O)[C@H](CC(C)C)NC(=O)[C@H](C)NC(=O)[C@H]([C@@H](C)CC)NC(=O)[C@@H]4CCCN4C(=O)[C@H]([C@@H](C)CC)NC(=O)[C@H](CSSC[C@H](NC1=O)C(=O)N[C@@H](CO)C(=O)N1CCC[C@H]1C(=O)N[C@@H](Cc1ccccc1)C(=O)N[C@@H](CCC(=O)O)C(=O)N[C@@H](CCSC)C(=O)N1CCC[C@H]1C(=O)N1CCC[C@H]1C(=O)N3)NC(=O)[C@H](CCCNC(=N)N)NC2=O` [AS37] (H-ADCSGICSPFEMPPCRSSDCRCIPIALIGGFCINPIS-OH; disulfide 3-20, 7-22, 15-32 (inferred); N-terminus and C-terminus assumed), the “toxicity / entomotoxic properties (in words)” value in assay [1] is “toxicity comparable to that of the reference PA1b peptide”. In addition, in assay [2], the Ki – broadly, a dissociation constant, usually derived from enzyme kinetics or from competition with a known ligand – was 15 ± 2 nM. In the case of “DECWGPCSVLQTPPCPLSKCYCIPLFLVVGYCSHASS [DS37]”, in assay [1], the “toxicity / entomotoxic properties (in words)” value is “do not have entomotoxic properties”. Besides, in assay [2], the affinity corresponds to a Ki of 694 ± 2 nM. Regarding “EFCSSVGSFCSPFNTNPCGYLGNCRCVPYYLYGGTCENPFG (disulfide 3-24, 10-26, 18-36 (inferred)) [EG41]”, the “toxicity / entomotoxic properties (in words)” value in assay [1] is reported as “toxicity comparable to that of the reference PA1b peptide”. Further, affinity in assay [2] was put at a Ki of 72.8 ± 2.7 nM.

With `CC[C@H](C)[C@@H]1NC(=O)[C@H](C(C)C)NC(=O)[C@H](CC(C)C)NC(=O)CNC(=O)[C@H](C(C)C)NC(=O)[C@@H]2CCCN2C(=O)[C@H]([C@@H](C)CC)NC(=O)[C@@H]2CSSC[C@@H]3NC(=O)[C@H](C(C)C)NC(=O)CNC(=O)[C@H](CC(N)=O)NC(=O)[C@@H](NC(=O)[C@H](CO)NC(=O)[C@H](C)N)CSSC[C@H](NC(=O)[C@H](C)NC(=O)[C@H](CO)NC(=O)[C@H]([C@@H](C)O)NC(=O)CNC(=O)[C@H](CSSC[C@@H](C(=O)N[C@@H](CCCNC(=N)N)C(=O)N[C@@H](CC(N)=O)C(=O)N4CCC[C@H]4C(=O)N[C@@H](CO)C(=O)NCC(=O)O)NC(=O)[C@H](Cc4ccc(O)cc4)NC(=O)CNC1=O)NC(=O)[C@@H]1CCCN1C(=O)[C@@H]1CCCN1C(=O)[C@H](CCSC)NC(=O)[C@H](CCC(=O)O)NC(=O)[C@H](Cc1ccccc1)NC(=O)[C@@H]1CCCN1C(=O)[C@H](CO)NC3=O)C(=O)N[C@@H](CCCNC(=N)N)C(=O)N2` [PA1b, reference compound] (H-ASCNGVCSPFEMPPCGTSACRCIPVGLVIGYCRNPSG-OH; disulfide 3-20, 7-22, 15-32 (inferred); N-terminus and C-terminus assumed), the inhibition constant (Ki) in assay [2] was determined as 17 ± 1.1 nM. “ASCPNVGAVCSPFETKPCGNVKDCRCLPWGLFFGTCINPTG (disulfide 3-24, 10-26, 18-36) [AG41]”: in assay [1] (fold versus pea PA1b), the “toxicity relative to PA1b” value was “close to ten times higher than that of PA1b”. Further, the inhibition constant Ki in assay [2] came to 1.3 ± 0.6 nM.

Regarding “GQCARVGMRCSRALPNPCGDIVTCRCVHLHLVGSTCIDYTGDGL [GL44]”, the “toxicity / entomotoxic properties (in words)” value in assay [1] was “do not have entomotoxic properties”. Take “QSCIGFCSVFDSKPLCGSSRCRCNKPLNNPFVGICERRPST [QT41]”: the “toxicity / entomotoxic properties (in words)” value in assay [1] is given as “do not have entomotoxic properties”. Regarding `CC[C@H](C)[C@@H]1NC(=O)[C@H](Cc2ccccc2)NC(=O)[C@@H]2CSSC[C@@H]3NC(=O)[C@H](C)NC(=O)[C@H](CCC(=O)O)NC(=O)CNC(=O)[C@@H](NC(=O)[C@H](CCCCN)NC(=O)[C@H](C)N)CSSC[C@H](NC(=O)CNC(=O)[C@H](CC(=O)O)NC(=O)CNC(=O)[C@H](C)NC(=O)[C@H](CC(N)=O)NC(=O)[C@H](CSSC[C@@H](C(=O)N[C@@H](C)C(=O)N[C@@H](CCC(N)=O)C(=O)N[C@@H](CC(C)C)C(=O)N[C@@H](CO)C(=O)N[C@H](C(=O)O)[C@@H](C)O)NC(=O)[C@H](Cc4ccccc4)NC(=O)CNC(=O)[C@@H]4CCCN4C(=O)[C@H](CC(C)C)NC(=O)[C@H]([C@@H](C)O)NC(=O)[C@H](CC(C)C)NC(=O)[C@H](Cc4ccc(O)cc4)NC(=O)[C@H](C)NC(=O)[C@H](CC(=O)O)NC(=O)[C@H]([C@@H](C)O)NC1=O)NC(=O)[C@H](Cc1ccccc1)NC(=O)[C@H](CC(N)=O)NC(=O)[C@H](Cc1ccccc1)NC(=O)[C@H](CCC(N)=O)NC(=O)[C@H]([C@@H](C)O)NC(=O)[C@H](CC(=O)O)NC3=O)C(=O)N[C@@H](CCCNC(=N)N)C(=O)N2` [AS40] (H-AKCGEACDTQFNFCNAGDGCRCFITDAYLTLPGFCAQLST-OH; disulfide 3-20, 7-22, 14-35 (inferred); N-terminus and C-terminus assumed), the “toxicity / entomotoxic properties (in words)” value in assay [1] is on record as “toxicity comparable to that of the reference PA1b peptide”. Besides, the Ki in assay [2] is 10.3 ± 2 nM.

Values taken from patent US9994623B2, “Entomotoxic polypeptides” (INSTITUT NATIONAL DE LA RECHERCHE AGRONOMIQUE, priority 2013, dated 2018).
